Assay results reported in US20240041898A9, “NEUROSTEROIDS AND ENANTIOMERS THEREOF FOR THE PREVENTION AND TREATMENT OF NEURODEGENERATIVE CONDITIONS” (priority 2019, published 2024).
Values joined by “and” are separate entries in the source; they are usually repeats but may differ in a detail not shown here. Identical values can stand only once.

Experiments:
TUNEL-positive RGCs = assay: Rat in vivo OHT model, TUNEL staining; settings: OHT eyes, intravitreal, three weeks after bead injection; single values
Procedure: (§1) Example 7. Rat in vivo OHT model induced by intracameral injection of microbeads—For induction of ocular hypertension (OHT) in vivo, sterile 6 μm polystyrene microbeads were injected into the anterior chamber of the left eye of each animal using a single-step, sclero-corneal tunnel approach with a 35G nanoneedle (FIG. 4A). […] After stabilization of elevated IOP, animals were randomly divided into 3 groups (non-treated OHT, AlloP injection, and ent-AlloP injection). AlloP and ent-AlloP were administered as a one-time intravitreal injection one week following bead injection. Non-treated OHT animals received sterile vehicle intravitreally. […]
Apoptosis—To visualize apoptotic cells, a DeadEnd™ Colorimetric TUNEL (TdT-mediated dUTP Nick-End Labeling) System (Promega, Madison, WI) was used according to the manufacturer's instructions. […] After the length of each retinal section was measured (Image-Pro Plus software), the cells were counted in the whole section length and the number of cells was normalized per 200 μm of retinal section. The number of apoptotic cells was evaluated by Dunnett's multiple comparison test to determine changes in the density of apoptotic cells among experimental retinas treated with 1 μM AlloP or 1 μM ent-AlloP at 75 mmHg and control retinas incubated with aCSF at 75 mmHg. […]

p62 = assay: Rat in vivo OHT model, Western blot of p62; settings: in vivo OHT eyes, 3 weeks after microbead injection; relative units, control = 1.00; single values
Procedure: as §1, with “intravitreally. As a further control, vehicle was intravitreally injected 7 days after intracameral administration of 10 μl of PBS. Three weeks after bead injections, IOP was 26.7±3.7 mmHg in non-treated OHT eyes compared to 9.9±0.9 mmHg in control eyes.” for “intravitreally.”

## CC(=O)[C@H]1CC[C@H]2[C@@H]3CC[C@H]4C[C@H](O)CC[C@]4(C)[C@H]3CC[C@]12C [AlloP, allopregnanolone]
TUNEL-positive RGCs
  TUNEL staining (FIG. 4I), number of TUNEL-positive RGCs, individual 1-5: 1 per 200 μm of retinal sections (2×) and 0 per 200 μm of retinal sections (3×)
p62
  p62 expression (FIG. 6D), individual experiments 1-4: 1.73 and 1.82 and 2.90 and 2.53

## CC(=O)[C@@H]1CC[C@@H]2[C@H]3CC[C@@H]4C[C@@H](O)CC[C@@]4(C)[C@@H]3CC[C@]21C [ent-AlloP, ent-allopregnanolone]
TUNEL-positive RGCs
  TUNEL staining (FIG. 4I), number of TUNEL-positive RGCs, individual 1-5: 1 per 200 μm of retinal sections (2×) and 0 per 200 μm of retinal sections (3×)
p62
  p62 expression (FIG. 6D), individual experiments 1-4: 0.92 and 0.91 and 1.00 and 1.61
